# Results reported in US20230348516A1, “YKL-40 INHIBITORS AND THEIR THERAPEUTIC APPLICATIONS” (Molecure S.A., priority 2022, published 2023).
# Molecular target: YKL-40 and asialofetuin interaction (Homo sapiens, UniProt P36222)
# Test: Orthogonal YKL-40 AlphaScreen assay using biotinylated asialofetuin (AF-biot)
# Format: binding
# Sequence of YKL-40 and asialofetuin interaction (P36222 22-383): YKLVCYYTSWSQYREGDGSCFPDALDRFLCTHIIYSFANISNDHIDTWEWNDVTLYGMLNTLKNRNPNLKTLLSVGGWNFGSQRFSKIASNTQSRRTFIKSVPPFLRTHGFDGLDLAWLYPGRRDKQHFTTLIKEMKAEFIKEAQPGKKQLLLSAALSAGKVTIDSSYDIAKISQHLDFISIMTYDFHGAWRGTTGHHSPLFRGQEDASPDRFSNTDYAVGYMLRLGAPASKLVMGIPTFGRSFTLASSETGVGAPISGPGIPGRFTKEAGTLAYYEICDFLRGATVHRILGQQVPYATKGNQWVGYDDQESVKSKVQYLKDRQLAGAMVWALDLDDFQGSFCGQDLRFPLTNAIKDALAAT
IC50,interference with YKL-40 and asialofetuin (triantennary LacNac) interaction,Compound
20 nM,,"Cc1cc(C2CCC(N3C[C@H](C(=O)O)OC[C@@H]3Cc3ccc(Cl)cc3)CC2)nn1C.O=C(O)C(F)(F)F (single isomer, unassigned) [Example 11, 2,2,2-trifluoroacetate]"
,64%,"Cc1cc(C2CCC(N3C[C@H](C(=O)O)OC[C@@H]3Cc3ccc(Cl)cc3)CC2)nn1C.O=C(O)C(F)(F)F (single isomer, unassigned) [Example 11]"
